Data on 1 molecule can be found in paper PMC10511043 (Cell Structure and Function, 2020).

For the experiment, the target named is LCMV Z protein (Zabton-3 / Zabton FRET biosensor, trimeric tandem Z) (Lymphocytic choriomeningitis virus (strain Armstrong), UniProt P18541).
Chain of LCMV Z protein (Zabton-3 / Zabton FRET biosensor, trimeric tandem Z) (P18541 whole entry, looked up): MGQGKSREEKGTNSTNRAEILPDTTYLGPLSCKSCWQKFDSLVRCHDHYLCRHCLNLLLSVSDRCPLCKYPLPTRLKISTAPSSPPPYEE

`Nc1nc(N)c2c3c(sc2n1)CN(Cc1ccccc1)CC3` [#4, 5,6,7,8-tetrahydro-7-(benzyl)-pyrido[4',3':4,5]thieno[2,3-d]pyrimidin-2,4-diamine]: the “decrease of FRET/CFP emission ratio” value is reported as “both of them decreased the FRET ratio in a concentration-dependent manner”.
